Measurements: ChEMBL document CHEMBL5537193, “Multitargeting HDAC Inhibitors Containing a RAS/RAF Protein Interfering Unit” (J Med Chem, 2024)
The source made the active and inactive calls. The rule behind the calls is not given here.

Columns and labels:
[1] = Toxicity in BALB/c nude mouse xenografted with human HT-29 cells assessed as change in kidney histopathology at 10 to 15 mg/kg, ip administered once daily for 24 days by H&E staining based analysis; assay type: organism-based; details: in vivo, 576 h, dose 10-15 mg/kg, time 24 day
HT-29 [2] = experiment: Antitumor activity against human HT-29 cells xenografted in BALB/c nude mouse assessed as tumor growth inhibition administered intraperitoneally once a day for 24 days; assay type: functional, cell-based; details: route ip, time 24.0 day
A-431 = experiment: cells; details: Homo sapiens, A-431, 72 h
Description: Cytotoxicity against human A-431 cells assessed as inhibition of cell growth incubated for 72 hrs by MTT assay

HT-29 [3] = experiment: cells; details: Homo sapiens, HT-29, 72 h
Description: Cytotoxicity against human HT-29 cells assessed as inhibition of cell growth incubated for 72 hrs by MTT assay

HT-29 [4] = experiment: Induction of apoptosis in human HT-29 cells incubated for 24 hrs by flow cytometric analysis; assay type: functional, cell-based; details: dose 1-4 µM
HT-29 [5] = experiment: Effect on Histone H3 expression in human HT-29 cells at 2 uM incubated for 24 hrs by Western blot analysis; assay type: functional, cell-based
NCI-H1975 = experiment: cells; details: Homo sapiens, NCI-H1975, 72 h
Description: Cytotoxicity against human NCI-H1975 cells assessed as inhibition of cell growth incubated for 72 hrs by MTT assay

Mus musculus = experiment: In vivo inhibition of HDAC3 in BALB/c mouse xenografted with human HT-29 cells assessed as induction of alpha-tubulin acetylation administered intraperitoneally once every 2 days for 12 times and measured after 24 days by Western blot analysis; assay type: functional; details: dose 7.5-15 mg/kg, route ip, time 24.0 day
HT-29 [6] = experiment: Inhibition of MAPK signaling pathway in human HT-29 cells assessed as inhibition of C-RAF phosphorylation at Ser338 residue at 2 uM incubated for 24 hrs by Western blot analysis; assay type: cell-based
PANC-1 [7] = experiment: Effect on Histone H3 expression in human PANC-1 cells at 2 uM incubated for 24 hrs by Western blot analysis; assay type: functional, cell-based
[8] = Toxicity in BALB/c nude mouse xenografted with human HT-29 cells assessed as change in heart histopathology at 10 to 15 mg/kg, ip administered once daily for 24 days by H&E staining based analysis; assay type: organism-based; details: in vivo, 576 h, dose 10-15 mg/kg, time 24 day
PANC-1 [9] = experiment: cells; details: Homo sapiens, PANC-1, 72 h
Description: Cytotoxicity against human PANC-1 cells assessed as inhibition of cell growth incubated for 72 hrs by MTT assay

HT-29 [10] = experiment: Antitumor activity against human HT-29 cells xenografted in BALB/c nude mouse assessed as tumor growth inhibition at 7.5 mg/kg, ip administered once a day for 24 days relative to control; assay type: functional; details: HT-29, 576 h, time 24 day, read-out: TGI
HT-29 [11] = experiment: Cell cycle arrest in human HT-29 cells assessed as accumulation of cells at G2-M phase at 2 uM incubated for 24 hrs by PI/RNase staining based flow cytometric analysis; assay type: functional
PANC-1 [12] = experiment: Induction of apoptosis in human PANC-1 cells assessed as apoptotic cells at 2 uM incubated for 24 hrs by flow cytometric analysis relative to control; assay type: functional
PANC-1 [13] = experiment: Effect on alpha-tubulin expression in human PANC-1 cells at 2 uM incubated for 24 hrs by Western blot analysis; assay type: functional, cell-based
[14] = Metabolic stability in human liver microsomes assessed as intrinsic clearance at 1 uM measured upto 40 mins by LC-MS/MS analysis; assay type: ADME, Microsome; details: read-out: CLH
[15] = Cmax in Sprague-Dawley rat at 15 mg/kg, ip measured after 24 hrs by LC-MS/MS analysis; assay type: ADME, organism-based; details: in vivo
PANC-1 [16] = experiment: Induction of apoptosis in human PANC-1 cells assessed as increase in Cytochrome C expression level at 2 uM incubated for 24 hrs by Western blot analysis; assay type: functional, cell-based
PANC-1 [17] = experiment: Induction of apoptosis in human PANC-1 cells assessed as increase in Bax expression at 2 uM incubated for 24 hrs by Western blot analysis; assay type: functional, cell-based
[18] = Metabolic stability in rat liver microsomes assessed as half-life at 1 uM measured upto 40 mins by LC-MS/MS analysis; assay type: ADME, Microsome
[19] = Half-life in Sprague-Dawley rat at 15 mg/kg, ip measured after 24 hrs by LC-MS/MS analysis; assay type: ADME, organism-based; details: in vivo
[20] = AUC (0 to infinity) in Sprague-Dawley rat at 15 mg/kg, ip measured after 24 hrs by LC-MS/MS analysis; assay type: ADME, organism-based; details: in vivo
HT-29 [21] = experiment: Effect on ERK1/2 protein expression in human HT-29 cells at 2 uM incubated for 24 hrs by Western blot analysis; assay type: functional, cell-based
PANC-1 [22] = experiment: Inhibition of MAPK signaling pathway in human PANC-1 cells assessed as inhibition of C-RAF phosphorylation at Ser338 residue at 2 uM incubated for 24 hrs by Western blot analysis; assay type: cell-based
HT-29 [23] = experiment: Effect on ERK1/2 expression in tumor of BALB/c mouse xenografted with human HT-29 cells at 7.5 to 15 mg/kg, ip administered once every 2 days for 12 times and measured after 24 days by Western blot analysis; assay type: functional, organism-based; details: Neoplasm, dose 7.5-15 mg/kg, time 24.0 day
PANC-1 [24] = experiment: Induction of apoptosis in human PANC-1 cells assessed as increase in cleaved caspase-3 expression level at 2 uM incubated for 24 hrs by Western blot analysis; assay type: functional, cell-based
PANC-1 [25] = experiment: Effect on ERK1/2 protein expression in human PANC-1 cells at 2 uM incubated for 24 hrs by Western blot analysis; assay type: functional, cell-based
A549 = experiment: cells; details: Homo sapiens, A549, 72 h
Description: Cytotoxicity against human A549 cells assessed as inhibition of cell growth incubated for 72 hrs by MTT assay

[26] = MRT (0 to infinity) in Sprague-Dawley rat at 15 mg/kg, ip measured after 24 hrs by LC-MS/MS analysis; assay type: ADME, organism-based; details: in vivo
HT-29 [27] = experiment: Effect on Histone H3 expression in tumor of BALB/c mouse xenografted with human HT-29 cells at 7.5 to 15 mg/kg, ip administered once every 2 days for 12 times and measured after 24 days by Western blot analysis; assay type: functional, organism-based; details: Neoplasm, dose 7.5-15 mg/kg, time 24.0 day
SGC-7901 = experiment: cells; details: Homo sapiens, SGC-7901, 72 h
Description: Cytotoxicity against human SGC-7901 cells assessed as inhibition of cell growth incubated for 72 hrs by MTT assay

[28] = Toxicity in BALB/c nude mouse xenografted with human HT-29 cells assessed as change in spleen histopathology at 10 to 15 mg/kg, ip administered once daily for 24 days by H&E staining based analysis; assay type: organism-based; details: in vivo, 576 h, dose 10-15 mg/kg, time 24 day
[29] = Toxicity in BALB/c nude mouse xenografted with human HT-29 cells assessed as change in body weight at 7.5 to 15 mg/kg, ip administered once daily for 24 days; assay type: organism-based; details: in vivo, 576 h, dose 7.5-15 mg/kg, time 24 day
[30] = Toxicity in BALB/c nude mouse xenografted with human HT-29 cells assessed as change in main organs at 7.5 to 15 mg/kg, ip administered once every 2 days for 12 times for 24 days by H&E staining based analysis; assay type: organism-based; details: in vivo, 576 h, dose 7.5-15 mg/kg, time 24 day
HT-29 [31] = experiment: Antitumor activity against human HT-29 xenografted in BALB/c nude mouse assessed as tumor growth inhibition at 15 mg/kg, ip administered once every 2 days for 12 times for 24 days relative to control; assay type: functional; details: HT-29, 576 h, time 24 day, read-out: TGI
Histone deacetylase 9 = Histone deacetylase 9 (Homo sapiens, UniProt Q9UKV0); experiment: Inhibition of HDAC9 (unknown origin)
Histone deacetylase 9, sequence (Q9UKV0 whole entry): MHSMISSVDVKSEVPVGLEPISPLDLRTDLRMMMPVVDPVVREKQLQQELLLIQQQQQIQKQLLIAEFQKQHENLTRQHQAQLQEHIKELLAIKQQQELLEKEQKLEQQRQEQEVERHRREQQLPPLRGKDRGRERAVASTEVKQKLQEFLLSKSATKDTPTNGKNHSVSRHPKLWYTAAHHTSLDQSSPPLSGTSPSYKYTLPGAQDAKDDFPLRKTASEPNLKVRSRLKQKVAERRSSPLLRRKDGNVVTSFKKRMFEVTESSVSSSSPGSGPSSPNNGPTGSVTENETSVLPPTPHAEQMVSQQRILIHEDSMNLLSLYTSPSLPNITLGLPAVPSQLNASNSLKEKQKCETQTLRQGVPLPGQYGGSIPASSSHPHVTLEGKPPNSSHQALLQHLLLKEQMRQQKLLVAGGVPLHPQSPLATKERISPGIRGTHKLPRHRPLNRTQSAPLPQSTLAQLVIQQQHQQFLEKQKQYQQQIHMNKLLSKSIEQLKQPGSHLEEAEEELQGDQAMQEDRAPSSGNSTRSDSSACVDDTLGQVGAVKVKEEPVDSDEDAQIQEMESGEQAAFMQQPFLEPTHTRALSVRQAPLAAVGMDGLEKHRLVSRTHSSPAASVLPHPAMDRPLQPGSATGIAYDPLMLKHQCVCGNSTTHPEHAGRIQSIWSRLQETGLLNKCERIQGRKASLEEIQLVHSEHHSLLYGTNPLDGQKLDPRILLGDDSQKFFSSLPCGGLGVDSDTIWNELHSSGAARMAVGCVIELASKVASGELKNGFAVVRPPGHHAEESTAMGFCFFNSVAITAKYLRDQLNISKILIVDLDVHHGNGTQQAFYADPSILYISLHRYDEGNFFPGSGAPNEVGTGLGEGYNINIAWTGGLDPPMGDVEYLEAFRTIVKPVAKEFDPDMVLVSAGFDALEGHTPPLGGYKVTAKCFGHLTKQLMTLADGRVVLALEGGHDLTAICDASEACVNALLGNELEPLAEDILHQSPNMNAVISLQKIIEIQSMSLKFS

HepG2 = experiment: cells; details: Homo sapiens, HepG2, 72 h
Description: Cytotoxicity against human HepG2 cells assessed as inhibition of cell growth incubated for 72 hrs by MTT assay

MV4-11 = experiment: cells; details: Homo sapiens, MV4-11, 72 h
Description: Cytotoxicity against human MV4-11 cells assessed as inhibition of cell growth incubated for 72 hrs by MTT assay

COc1cc(OC)c(/C=C/S(=O)(=O)Cc2ccc(OC)c(NCC(=O)NO)c2)c(OC)c1
Activity [1]: Non-Toxic
TGI (HT-29 [2]): Dose-Dependent Effect
IC50 (A-431): 550 nM
IC50 (HT-29 [3]): 40 nM
Activity (HT-29 [4]): Dose-Dependent Effect
Activity (HT-29 [5]): inactive
IC50 (NCI-H1975): 50 nM
inhibition (Mus musculus): Dose-Dependent Effect
inhibition (HT-29 [6]): Active
Activity (PANC-1 [7]): inactive
Activity [8]: Non-Toxic
IC50 (PANC-1 [9]): 50 nM
inhibition in vivo at 7.5 mg/kg (HT-29 [10]): 70.1%
Activity (HT-29 [11]): Active
Activity (PANC-1 [12]): 57.4%
Activity (PANC-1 [13]): inactive
CLint scaled at 1 µM [14]: 14 mL/min/kg
Cmax [15]: 2800 ng/mL
Activity (PANC-1 [16]): Active
Activity (PANC-1 [17]): Active
half-life at 1 µM [18]: 5.52 min
half-life [19]: 46.3 min
AUC(0-inf) [20]: 5200 ng·h/mL
Activity (HT-29 [21]): inactive
inhibition (PANC-1 [22]): Active
Activity (HT-29 [23]): inactive
Activity (PANC-1 [24]): Active
Activity (PANC-1 [25]): inactive
IC50 (A549): 90 nM
MRT inf [26]: 80.4 min
Activity (HT-29 [27]): inactive
IC50 (SGC-7901): 170 nM
Activity [28]: Non-Toxic
Activity [29]: Non-Toxic
Activity [30]: Non-Toxic
inhibition in vivo at 15 mg/kg (HT-29 [31]): 75.2%
IC50 (Histone deacetylase 9): 83.7 nM
IC50 (HepG2): 990 nM
IC50 (MV4-11): 80 nM
